Source: patent publication US20070082327A1, “Cellular phenotype” (Cytokinetics, Inc. A Delaware Corporation, priority 2005, published 2007)

How the values were obtained:
60 cancer cell lines = conditions: NCI 60 cell line data; cited from earlier work
SKOV3 cells = test: time-lapse tracking of cell fate, GFP-Histone 2B SKOV3 cells; format: cell-based; conditions: SKOV3, 20 random cells tracked, 0.5 μM Taxol, FIG. 3a
Procedure: FIG. 3a is a bar graph showing the percentages of 20 random cells tracked to assess their fate: complete mitosis, death from mitosis, decondensation (uncertain fate) and death from decondensation.
The data used to construct the chart was obtained by time-lapse movies of cells marked with GFP-Histone 2B. Movies were collected on cell populations treated with two different mp2 stimulus compounds at various concentrations, as well as on DMSO-treated (control) cells, cells treated with 0.5 μM Taxol, and cells treated with compounds that produce a rice phenotype. […] It is believed that most of these cells would eventually die.

Structure (SMILES): CC(=O)O[C@H]1C(=O)[C@@]2(C)[C@H]([C@H](OC(=O)c3ccccc3)[C@]3(O)C[C@H](OC(=O)[C@H](O)[C@@H](NC(=O)c4ccccc4)c4ccccc4)C(C)=C1C3(C)C)[C@]1(OC(C)=O)CO[C@@H]1C[C@@H]2O [Taxol, paclitaxel]
- potency differences between cell types (60 cancer cell lines): over 3 orders of magnitude
- cell fate after treatment (SKOV3 cells): the highest number of cells die directly from mitosis
